# Experimental data as given in PubChem BioAssay (NCI).
#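 96-well plates; 48 h exposure; 5 concentrations. Endpoints by linear interpolation between flanking doses. Not reached: highest tested concentration assigned. GI50: concentration for 50% inhibition of growth. TGI is the concentration that stops growth completely.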
# What was measured:
# Assay in all cases: inhibition of tumour cell growth, NCI panel, 48 h
# HCT-116 colon = system: HCT-116 colon
# IGROV1 ovarian = system: IGROV1 ovarian
# U251 CNS = system: U251 CNS
# UACC-62 melanoma = system: UACC-62 melanoma
# UO-31 renal = system: UO-31 renal
# NCI-H23 lung = system: NCI-H23 lung
# K-562 leukemia = system: K-562 leukemia
# HT29 colon = system: HT29 colon
# RXF 393 renal = system: RXF 393 renal
# A498 renal = system: A498 renal
Structure (SMILES),TGI (HCT-116 colon) [µM],TGI (IGROV1 ovarian) [µM],TGI (U251 CNS) [µM],TGI (UACC-62 melanoma) [µM],TGI (UO-31 renal) [µM],TGI (NCI-H23 lung) [µM],TGI (K-562 leukemia) [µM],TGI (HT29 colon) [µM],TGI (RXF 393 renal) [µM],TGI (A498 renal) [µM],GI50 (HCT-116 colon) [µM],GI50 (IGROV1 ovarian) [µM],GI50 (U251 CNS) [µM],GI50 (RXF 393 renal) [µM],GI50 (UACC-62 melanoma) [µM],GI50 (UO-31 renal) [µM],GI50 (A498 renal) [µM],GI50 (NCI-H23 lung) [µM],GI50 (K-562 leukemia) [µM],GI50 (HT29 colon) [µM]
Cc1ccc(NC(=O)C2C(=O)N(c3ccc(C)c(C)c3)C(=O)/C2=N\NC(N)=S)cc1C (stereo not given),> 100,> 100,> 100,> 100,> 100,> 100,> 100,> 100,–,–,–,–,–,–,–,–,–,–,–,–
BrC1=CC=C2NCCCCCCN=C3C=CC(Br)=CC=C3NCCCCCCN=C2C=C1,> 25.5,> 25.5,> 25.5,> 25.5,> 25.5,> 25.5,> 25.5,> 25.5,> 25.5,> 25.5,–,–,–,–,–,–,–,–,–,–
CS(=O)(=O)CCn1c(=O)c(Oc2ccc(F)cc2F)cc2cnc(NC3CCOCC3)nc21,> 25,> 25,> 25,> 25,> 25,> 25,> 25,> 25,> 25,> 25,> 25,> 25,> 25,> 25,> 25,> 25,15.8,> 25,> 25,> 25
CC(O)(CNS(=O)(=O)c1ccccc1)c1ccccc1 (stereo not given),> 100,> 100,> 100,> 100,> 100,> 100,> 100,> 100,> 100,> 100,–,–,–,–,–,–,–,–,–,–
O=S(=O)(O)c1cc(N=Nc2cc(S(=O)(=O)O)c3cccnc3c2O)ccc1/C=C/c1ccc(N=Nc2cc(S(=O)(=O)O)c3cccnc3c2O)cc1S(=O)(=O)O,> 100,> 100,> 100,> 100,> 100,> 100,> 89.8,> 100,> 31.6,> 100,–,–,–,–,–,–,–,–,–,–
c1cc(-c2cn[nH]c2)cc(-c2cn[nH]c2)c1,49.4,> 100,> 100,35.6,58.4,> 100,> 100,–,36.8,89.7,–,–,–,–,–,–,–,–,–,–
Cc1[nH]nc2c1C(=O)C=C(N(CCO)c1ccccc1)C2=O,> 100,> 100,> 100,> 100,> 100,> 100,> 100,> 100,> 100,–,–,–,–,–,–,–,–,–,–,–
Cc1nc(Nc2ccccc2)sc1C(=O)NNc1ccc([N+](=O)[O-])cc1[N+](=O)[O-],> 100,> 100,> 100,> 100,> 100,44.2,60.1,> 100,78.5,–,–,–,–,–,–,–,–,–,–,–
c1ccc2cc(Cn3c[n+](Cc4ccc5ccccc5c4)c4ccccc43)ccc2c1,–,–,–,–,4.62,–,–,–,–,2.5,–,–,–,–,–,1.74,1.08,–,–,–
O=[N+]([O-])[O-].O=[N+]([O-])[O-].[Au].[Au].c1ccc([P-]c2ccccc2)cc1.c1ccc([P-]c2ccccc2)cc1,> 100,> 100,> 100,65.3,47.5,> 100,> 100,> 100,–,> 100,44.2,46.2,36.6,–,30,25.9,> 100,36,23.6,71.3
Cn1c2ccccc2c(=O)c2c([N+](=O)[O-])ccc(NCCN)c21,15.3,27.2,28.1,29.6,18.8,23.6,–,17.3,23.3,31,–,–,–,–,–,–,–,–,–,–
O=[N+]([O-])c1ccc(/C=C(/c2ccc([N+](=O)[O-])o2)S(=O)(=O)c2ccccc2)o1,3.08,30.6,29.4,19.1,16.3,38,10.2,13.6,> 100,–,–,–,–,–,–,–,–,–,–,–
O=C(O)/C(=C\c1ccccc1Cl)S(=O)(=O)c1ccccc1,> 100,> 100,> 100,> 100,> 100,–,> 100,> 100,> 100,> 100,–,–,–,–,–,–,–,–,–,–
COC(=O)NC(=O)c1cn(CCCOC(=O)CCCCCCCCC(=O)OCCCn2cc(C(=O)NC(=O)OC)c(=O)[nH]c2=O)c(=O)[nH]c1=O,> 100,> 100,–,> 100,> 100,> 100,> 100,> 100,75,> 100,–,–,–,–,–,–,–,–,–,–
COc1ccc2c(c1)cn1c3ccc(O)cc3[nH]c(=O)c21,1.61,4.77,1.9,6.02,13.1,15.5,–,2.18,0.627,20.7,0.0567,0.338,0.143,0.0592,0.151,0.264,0.377,0.292,–,0.411
CCCCCCCCCCCC(=O)c1c(O)cccc1O,33.1,32.4,34,34.3,30.2,32.2,> 100,45,40.4,–,–,–,–,–,–,–,–,–,–,–
Cc1nc2cc(Nc3nc(Nc4ccc(F)cc4)nc(N4CCN(C)CC4)n3)ccc2n1Cc1ccccc1,3.06,5.83,2.64,–,3.82,4.5,5.29,3.28,–,3.19,1.33,2.45,1.35,–,–,1.79,1.56,2,1.34,1.66
Nc1ccc2ccc(NS(=O)(=O)N3CCCCC3)cc2c1,> 38.7,> 100,> 42,> 100,> 100,> 63.8,> 100,> 100,–,0.872,0.514,0.765,0.392,–,0.301,1.7,0.176,1.53,0.354,0.4

Structure (SMILES),TGI (HCT-116 colon) [µM],TGI (IGROV1 ovarian) [µM],TGI (U251 CNS) [µM],TGI (UACC-62 melanoma) [µM],TGI (UO-31 renal) [µM],TGI (NCI-H23 lung) [µM],TGI (K-562 leukemia) [µM],TGI (HT29 colon) [µM],TGI (RXF 393 renal) [µM],TGI (A498 renal) [µM],GI50 (HCT-116 colon) [µM],GI50 (IGROV1 ovarian) [µM],GI50 (U251 CNS) [µM],GI50 (RXF 393 renal) [µM],GI50 (UACC-62 melanoma) [µM],GI50 (UO-31 renal) [µM],GI50 (A498 renal) [µM],GI50 (NCI-H23 lung) [µM],GI50 (K-562 leukemia) [µM],GI50 (HT29 colon) [µM]
CC1CCP(=O)(c2ccccc2)CC1 (stereo not given),–,> 100,> 100,> 100,> 100,> 100,> 100,> 100,> 100,–,–,–,–,–,–,–,–,–,–,–
CC1(C)CC(=O)C(=[N+]=[N-])C(=O)C1,> 100,> 100,–,> 100,–,> 100,> 100,> 100,> 100,–,–,–,–,–,–,–,–,–,–,–
O=C(O)c1cscc1Cc1cccs1,> 100,> 100,> 100,> 100,–,> 100,> 100,> 100,> 100,> 100,–,–,–,–,–,–,–,–,–,–
CC1SC(c2c(Cl)cccc2Cl)N(NC(=O)C(O)c2ccccc2)C1=O (stereo not given),> 100,> 100,> 100,> 100,> 100,–,> 100,> 100,> 100,> 100,56,62.9,54.1,93.2,50.2,> 100,75.7,–,39.9,> 100
CC(O)C(O)C(O)C(/C=N\Nc1ccccc1)=N/Nc1ccccc1 (stereo not given),30.5,21.4,27.2,22.2,25.7,24.1,40.8,30.8,–,22.6,–,–,–,–,–,–,–,–,–,–
COC(=O)C1N=CSCC1(C)O (stereo not given),> 100,> 100,–,> 100,> 100,> 100,> 100,> 100,> 100,> 100,–,–,–,–,–,–,–,–,–,–
CC(=O)[C-](C(C)=O)c1ccccc1.CC(=O)[C-](C(C)=O)c1ccccc1.CC[O-].CC[O-].[Ti+4],> 100,> 100,> 100,> 100,> 100,> 100,> 100,> 100,–,–,> 100,> 100,> 100,–,> 100,> 100,–,> 100,> 100,> 100
c1cc[c]([Sn]([S]c2cccc3cccnc23)([S]c2cccc3cccnc23)[c]2ccccc2)cc1,0.324,0.789,1.92,0.43,0.514,0.46,–,0.565,0.23,0.202,0.175,0.267,0.482,0.109,0.186,0.182,0.0359,0.198,–,0.222
COc1cc(Cl)c2c3c(c(C(=O)c4ccccc4)oc13)CCC2,> 100,> 100,> 100,> 100,–,> 100,> 100,> 100,> 100,> 100,–,–,–,–,–,–,–,–,–,–
C#Cc1cccc(Oc2ccc(NC(=O)CCl)cc2)c1,> 82.5,42.4,> 82.5,> 82.5,> 82.5,> 82.5,> 82.5,> 82.5,> 82.5,–,30.9,5.85,> 82.5,> 82.5,> 82.5,> 82.5,–,48.1,34.4,> 82.5
COc1cc(NCC2COc3c(ccc(OC)c3OC)C2=O)c([N+](=O)[O-])cc1OC (stereo not given),> 100,> 100,> 100,> 100,> 100,> 100,> 100,> 100,–,> 100,–,–,–,–,–,–,–,–,–,–
O=C(CNc1ncco1)Nc1ccc(S(=O)(=O)c2ccc(NC(=O)CNc3ncco3)cc2)cc1,2.98,5.32,2.48,3.65,17.3,9.51,5.95,–,2.86,62.7,1.42,1.76,1.17,1.42,1.75,3.03,21.8,2.46,2,–
N#C/C(N)=C(\C#N)N=Cc1csc2ccccc12,83.6,67.2,45.3,> 100,> 100,51.2,> 100,> 100,–,–,26.8,15.8,20.2,–,28.2,91.2,–,11.5,95.5,22.2
COc1ccc(C(=O)COc2cccc(/C=C3\CSc4ccc(Cl)cc4C3=O)c2)cc1,4.3,11.6,4.59,21,25.5,35,–,11.4,7.1,> 100,1.94,–,2.13,1.14,6.23,11.5,36.5,14.2,–,3.32
Cc1cc(N(CCC#N)CCC#N)ccc1N=Nc1cccc(Cl)c1,> 100,–,> 100,> 100,> 100,> 100,> 100,> 100,> 100,> 100,–,–,–,–,–,–,–,–,–,–
O=C(NNS(=O)(=O)c1ccc(F)cc1)c1cccnc1Nc1ccc(Cl)cc1Cl,> 100,–,> 100,> 100,–,> 100,83.2,57.8,27.6,36.5,30.3,–,29.1,11.4,46,–,17.3,36.5,20.1,22.1
CCCCN(CCCC)C(=O)C(=O)C(C)C(=O)CC (stereo not given),–,> 100,> 100,> 100,> 100,> 100,> 100,> 100,–,–,–,–,–,–,–,–,–,–,–,–
N[C@@H]1CCCC[C@@H]1N.O=C([O-])CN(CP(=O)([O-])[O-])CP(=O)([O-])[O-].[Pt+2],> 100,> 100,> 100,> 100,> 100,> 100,> 100,> 100,–,> 100,> 100,> 100,> 100,–,> 100,> 100,> 100,> 100,> 100,> 100
